Active and inactive are the calls of the source. No rule for the calls is given here.
Test system: rodent carcinogenicity bioassays, tumor incidence
Experiment: CCRIS carcinogenicity studies
Method in brief: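 NCI-built, expert-reviewed records of carcinogenicity and related test outcomes (mutagenicity, tumor promotion/inhibition) compiled from published and report sources, historical span 1985-2011, not updated.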

Measured: carcinogen call

CC(C)C(C(=O)OC(C#N)c1cccc(Oc2ccccc2)c1)c1ccc(Cl)cc1 (stereo unspecified)
inactive: Species: MOUSE, Strain/Sex: B6C3F1/FEMALE, Route: ORAL, Dose: 0, 10, 50, 250, 1250 PPM IN THE DIET FOR 2 YR (STUDY DURATION: 2 YR), Dose: 0, 10, 50, 250, 1250 PPM IN THE DIET FOR 2 YR (STUDY DURATION: 2 YR) inactive; negative | Species: MOUSE, Strain/Sex: B6C3F1/MALE, Route: ORAL, Dose: 0, 10, 50, 250, 1250 PPM IN THE DIET FOR 2 YR (STUDY DURATION: 2 YR), Dose: 0, 10, 50, 250, 1250 PPM IN THE DIET FOR 2 YR (STUDY DURATION: 2 YR) inactive; negative | Species: MOUSE, Strain/Sex: C57BL/FEMALE, Route: INTRAGASTRIC, Dose: 0, 40, 80 MG/KG IN ARACHIS OIL 5/WK FOR 104 WK (STUDY DURATION: 120 WK), Dose: 0, 40, 80 MG/KG IN ARACHIS OIL 5/WK FOR 104 WK (STUDY DURATION: 120 WK) inactive; negative | Species: MOUSE, Strain/Sex: C57BL/MALE, Route: INTRAGASTRIC, Dose: 0, 40, 80 MG/KG IN ARACHIS OIL 5/WK FOR 104 WK (STUDY DURATION: 120 WK), Dose: 0, 40, 80 MG/KG IN ARACHIS OIL 5/WK FOR 104 WK (STUDY DURATION: 120 WK) inactive; negative | Species: RAT, Strain/Sex: SPRAGUE-DAWLEY/MALE,FEMALE, Route: ORAL inactive; negative | Species: Rat, Strain/Sex: Sprague-Dawley/Male and female (93/Experimental group and 183/Control group), Route: Oral, Dose: 0, 1, 5, 25, 250 ppm in diet for 2 yr, study duration 2 yr, Dose: 0, 1, 5, 25, 250 ppm in diet for 2 yr, study duration 2 yr inactive; negative

From PubChem BioAssay AID1259411 (Chemical Carcinogenesis Research Information System (CCRIS), 2018)
